Measured values from patent publication US20210046162A1, “Teriparatide Use for Bone Stress Fractures/Reactions” (University of South Carolina, priority 2019, published 2021).
Like-named read-outs stand apart in the source and are kept apart here. Values belong to the compound of their own block, whether it stands above or below them.

Tests used:
distal radial fracture = settings: cited from earlier work; for time to radiographic healing: placebo 9.1 weeks
osteosarcoma = settings: over 16,000 unique patients, post-market analysis; cited from earlier work
[1] = Plasma teriparatide concentrations after a single subcutaneous injection (FIG. 9); settings: sc
From the text: (§1) As used herein “peak concentration (CMAX) of PTH peptide in a blood plasma”, “area under concentration vs. time curve (AUC) of PTH peptide in a blood plasma”, “time to maximal plasma concentration (tMAX) of PTH peptide in a blood plasma” are pharmacokinetic parameters known to one skilled in the art. […] The “concentration vs. time curve” measures the concentration of PTH peptide in a blood serum of a subject vs. time after administration of a dosage of PTH peptide to the subject either by intranasal, intramuscular, subcutaneous, or other parenteral route of administration. “CMAX” is the maximum concentration of PTH peptide in the blood serum of a subject following a single dosage of PTH peptide to the subject. “TMAX” is the time to reach maximum concentration of PTH peptide in a blood serum of a subject following administration of a single dosage of PTH peptide to the subject. […] Mean changes of teriparatide acetate (in picograms per liter) in plasma after a single subcutaneous injection of teriparatide (filled circle 56.5 μg, filled triangle 28.2 μg) to 360 min. Bars represent standard deviation.

[2] = cited from earlier work; for bioavailability: after subcutaneous injection
[3] = in vivo, sc
From the text: as §1

stress fractures (DTSFs) = assay: Teriparatide therapy of stress fractures in NCAA collegiate athletes (FIG. 8); format: in vivo, humans; settings: 20 mcg dose, at least 28 days
From the text: The current disclosure has administered teriparatide at the 20 mcg dose to young adult NCAA collegiate athletes who have DTSFs. Our promising clinical findings, see, e.g., FIG. 8, have led us to hypothesize that teriparatide will have a positive effect on bone healing and return to duty among service members with DTSFs. While a dosage of 20 mcg has been found effective, other dosages are considered within the scope of this application such as ranges from 5-50 mcg, 10-40 mcg, 15-35 mcg, 20-30 mcg, etc. In one embodiment, the preferred range is 10 mcg-40 mcg.
The PTH peptide can also be administered in conjunction with other therapeutic agents such as bisphonates, calcium, vitamin D, estrogen or estrogen-receptor binding compounds, selective estrogen receptor modulators (SERMs), bone morphogenic proteins and/or calcitonin. In one embodiment, 500 mg calcium may be administered daily for the duration of treatment with teriparatide. Vitamin D may also be administered along with teriparatide. Unless a patient is hypercalemic, defined as a total serum calcium concentration >10.4 mg/dL (>2.60 mmol/L) or ionized serum calcium >5.2 mg/dL (>1.30 mmol/L), calcium would be used as part of the treatment regimen. For patients with low vitamin D concentrations, defined as a 25(OH)D concentration of 12 to 20 ng/mL (30 to 50 nmol/L), Vitamin D may also be administered during treatment descried herein. […]

tibial fractures = settings: rats, after 20 and 40 days of healing, cited from earlier work

Cmax ([1]; 28.2 ug): 0.193 ± 0.0353 ng/mL
Tmax ([1]; 28.2 ug): 0.9 h
half-life ([1]; 28.2 ug): 1.16 ± 0.217 h
Cmax ([1]; 56.5 ug): 0.338 ± 0.134 ng/mL
Tmax ([1]; 56.5 ug): 0.875 h
half-life ([1]; 56.5 ug): 1.29 ± 0.587 h
AUCinf ([3]; 28.2 ug): 28.07 ± 2.47 ng/min/mL
AUClast ([3]; 28.2 ug): 25.84 ± 3.18 ng/min/mL
AUCinf ([3]; 56.5 ug): 52.73 ± 10.03 ng/min/mL
AUClast ([3]; 56.5 ug): 49.91 ± 11.33 ng/min/mL
time after the injection at which Cmax was achieved ([3]; 56.5 ug): 1 h
Compound: CC[C@H](C)[C@H](NC(=O)[C@H](CCC(=O)O)NC(=O)[C@H](CO)NC(=O)[C@@H](NC(=O)[C@@H](N)CO)C(C)C)C(=O)N[C@@H](CCC(N)=O)C(=O)N[C@@H](CC(C)C)C(=O)N[C@@H](CCSC)C(=O)N[C@@H](Cc1cnc[nH]1)C(=O)N[C@@H](CC(N)=O)C(=O)N[C@@H](CC(C)C)C(=O)NCC(=O)N[C@@H](CCCCN)C(=O)N[C@@H](Cc1cnc[nH]1)C(=O)N[C@@H](CC(C)C)C(=O)N[C@@H](CC(N)=O)C(=O)N[C@@H](CO)C(=O)N[C@@H](CCSC)C(=O)N[C@@H](CCC(=O)O)C(=O)N[C@@H](CCCN=C(N)N)C(=O)N[C@H](C(=O)N[C@@H](CCC(=O)O)C(=O)N[C@@H](Cc1c[nH]c2ccccc12)C(=O)N[C@@H](CC(C)C)C(=O)N[C@@H](CCCN=C(N)N)C(=O)N[C@@H](CCCCN)C(=O)N[C@@H](CCCCN)C(=O)N[C@@H](CC(C)C)C(=O)N[C@@H](CCC(N)=O)C(=O)N[C@@H](CC(=O)O)C(=O)N[C@H](C(=O)N[C@@H](Cc1cnc[nH]1)C(=O)N[C@@H](CC(N)=O)C(=O)N[C@@H](Cc1ccccc1)C(=O)O)C(C)C)C(C)C [teriparatide]
time to healing compared with placebo group (distal radial fracture; 20 mcg daily for 8 weeks): shorter
time to radiographic healing (distal radial fracture; 20 mcg daily for 8 weeks): 7.4 weeks
improvement in healing time compared with placebo (distal radial fracture; 40 mcg daily for 8 weeks): not a statistically significant improvement
time to radiographic healing (distal radial fracture; 40 mcg daily for 8 weeks): 8.8 weeks
reported cases of osteosarcoma in humans (osteosarcoma): have not been any reported cases
bioavailability [2]: 95%
Absolute bioavailability ([2]; subcutaneous injection): 95%
half-life ([2]; subcutaneous injection): approximately 1 hour
half-life after subcutaneous injection ([2]; subcutaneous injection): approximately 1 hours
time to peak concentrations ([2]; subcutaneous injection): 30 min
healing of the subjects' stress fractures (stress fractures (DTSFs)): resulted in healing
mechanical strength of fractures (tibial fractures; 60 and 200 kg/day once daily): increased
callus quantity (tibial fractures; once daily): increased

Compound: PTH 1-84: full-length human parathyroid hormone, an 84 amino acids peptide with N-terminal and C-terminal regions
bioavailability [2]: 55%
duration of action ([2]; compared with PTH 1-34): longer
half-life after subcutaneous injection ([2]; subcutaneous injection): approximately 2.5 hours
